Results as given in patent US9029337B2, “Modulation of factor 7 expression” (Isis Pharmaceuticals, Inc., priority 2007, dated 2015).
Strand notation (5' to 3'): a small letter for the sugar, then the base; units joined by * are phosphorothioate-linked, units joined directly phosphodiester-linked; [ ] holds rarer units or linkages, { } end groups; capitals alone tell only the bases. e = 2'-O-(2-methoxyethyl) (MOE); [5mC] = 5-methylcytosine; d = 2'-deoxy (DNA)

Test system: human Factor 7 mRNA
Experiment: Antisense inhibition of human Factor 7 mRNA in HepB3 cells, 50 nM antisense oligonucleotide, lipofectin
Assay type: cell-based
Details: Table 1, 50 nM, lipofectin, approximately 24 hours, relative to untreated control cells
Method: Antisense oligonucleotides targeted to a Factor 7 nucleic acid were tested for their effects on Factor 7 mRNA in vitro. Cultured HepB3 cells at a density of 4,000 cells per well were transfected using lipofectin reagent with 50 nM antisense oligonucleotide. After a treatment period of approximately 24 hours, RNA was isolated from the cells and Factor 7 mRNA levels were measured by real-time RT-PCR, as described herein. Factor 7 mRNA levels were adjusted according to total RNA content as measured by RIBOGREEN®. Results are presented as percent inhibition of Factor 7, relative to untreated control cells.
(§1) Antisense oligonucleotides targeted to a Factor 7 nucleic acid were designed and tested for their effects on Factor 7 mRNA in vitro. Certain antisense oligonucleotides from Table 3 were also retested for their effects on Factor 7 mRNA in vitro. Cultured HepB3 cells at a density of 4,000 cells per well were transfected using lipofectin reagent with 50 nM antisense oligonucleotide. After a treatment period of approximately 24 hours, RNA was isolated from the cells and Factor 7 mRNA levels were measured by real-time RT-PCR, as described herein. Human Factor 7 primer probe set RTS 2927 was used to measure mRNA levels. Factor 7 mRNA levels were adjusted according to total RNA content as measured by RIBOGREEN®. Results are presented as percent inhibition of Factor 7, relative to untreated control.
as §1, with “tested” for “tested for their effects on Factor 7 mRNA in vitro. Certain antisense oligonucleotides from Table 3 were also retested”
These gapmers were designed by creating gapmers shifted slightly upstream and downstream (i.e. “microwalk”) of the original gapmers from Table 7. Gapmers were also created with various motifs, e.g. 5-10-5 MOE, 3-14-3 MOE, and 2-13-5 MOE. These gapmers were tested in vitro. Cultured HepB3 cells at a density of 4,000 cells per well were transfected using lipofectin reagent with 50 nM antisense oligonucleotide. After a treatment period of approximately 24 hours, RNA was isolated from the cells and Factor 7 mRNA levels were measured by real-time RT-PCR. Factor 7 mRNA levels were adjusted according to total RNA content, as measured by RIBOGREEN®. Results are presented as percent inhibition of Factor 7, relative to untreated control cells.

| Substance | % Inhibition [%] |
| --- | --- |
| 403090 (antisense eA*eG*eT*e[5mC]*e[5mC]*dT*dG*dG*dG*dT*d[5mC]*dA*dT*d[5mC]*dA*eG*e[5mC]*e[5mC]*eG*eG) [compound 403090] | 69 |
| 403093 (antisense eG*eA*eG*eA*e[5mC]*d[5mC]*d[5mC]*dT*dG*dG*dT*dG*dT*dA*d[5mC]*eA*e[5mC]*e[5mC]*e[5mC]*e[5mC]) [compound 403093] | 75 |
| 407595 (antisense eT*e[5mC]*e[5mC]*eT*eG*dA*dG*dG*d[5mC]*d[5mC]*dT*dT*dA*dG*d[5mC]*eG*eA*e[5mC]*e[5mC]*e[5mC]) [compound 407595] | 71 |
| 407596 (antisense eG*eA*eG*eG*e[5mC]*d[5mC]*d[5mC]*d[5mC]*dG*dG*d[5mC]*dT*dT*d[5mC]*d[5mC]*eA*e[5mC]*eG*eG*e[5mC]) [compound 407596] | 61 |
| 407597 (antisense eT*eG*eT*eT*eG*dA*d[5mC]*dA*dT*dT*d[5mC]*d[5mC]*d[5mC]*d[5mC]*dA*eT*eG*eG*eG*eA) [compound 407597] | 39 |
| 407598 (antisense e[5mC]*e[5mC]*eA*eT*eG*dA*dT*dG*dA*dA*dA*dT*d[5mC]*dT*d[5mC]*eT*eG*e[5mC]*eA*eG) [compound 407598] | 72 |
| 407599 (antisense e[5mC]*e[5mC]*eT*eG*eG*dG*dA*dG*dA*d[5mC]*d[5mC]*dA*dT*dG*dA*eT*eG*eA*eA*eA) [compound 407599] | 73 |
| 407600 (antisense eT*eG*eA*eA*eG*d[5mC]*d[5mC]*d[5mC]*dA*dA*dG*d[5mC]*dA*dG*dA*eA*eG*eG*e[5mC]*eA) [compound 407600] | 61 |
| 407601 (antisense e[5mC]*eA*eG*e[5mC]*e[5mC]*d[5mC]*dT*dG*dA*dA*dG*d[5mC]*d[5mC]*d[5mC]*dA*eA*eG*e[5mC]*eA*eG) [compound 407601] | 52 |
| 407602 (antisense e[5mC]*eT*eG*e[5mC]*eA*dG*d[5mC]*d[5mC]*dA*dG*dG*d[5mC]*dA*dG*d[5mC]*e[5mC]*e[5mC]*eT*eG*eA) [compound 407602] | 81 |
| 407603 (antisense eT*eA*eA*eG*eA*dA*dA*dT*d[5mC]*d[5mC]*dA*dG*dA*dA*d[5mC]*eA*eG*e[5mC]*eT*eT) [compound 407603] | 54 |
| 407604 (antisense e[5mC]*eA*e[5mC]*eA*e[5mC]*dT*dG*dG*dT*d[5mC]*d[5mC]*d[5mC]*d[5mC]*dA*dT*e[5mC]*eA*e[5mC]*eT*eG) [compound 407604] | 34 |
| 407605 (antisense eT*eT*eG*eA*eG*dG*d[5mC]*dA*d[5mC]*dA*d[5mC]*dT*dG*dG*dT*e[5mC]*e[5mC]*e[5mC]*e[5mC]*eA) [compound 407605] | 58 |
| 407607 (antisense eT*eG*eG*eA*eG*d[5mC]*dT*dG*dG*dT*d[5mC]*d[5mC]*dT*dT*dG*e[5mC]*eA*eG*eG*eA) [compound 407607] | 76 |
| 407608 (antisense eT*eA*eT*eA*eG*dG*dA*d[5mC]*dT*dG*dG*dA*dG*d[5mC]*dT*eG*eG*eT*e[5mC]*e[5mC]) [compound 407608] | 13 |
| 407609 (antisense eA*eG*eA*eA*eG*d[5mC]*dA*dG*dA*dT*dA*dT*dA*dG*dG*eA*e[5mC]*eT*eG*eG) [compound 407609] | 35 |
| 407610 (antisense eA*eG*eG*eG*eA*dG*dG*d[5mC]*dA*dG*dA*dA*dG*d[5mC]*dA*eG*eA*eT*eA*eT) [compound 407610] | 31 |
| 407611 (antisense eT*e[5mC]*eT*e[5mC]*eA*d[5mC]*dA*dG*dT*dT*d[5mC]*d[5mC]*dG*dG*d[5mC]*e[5mC]*e[5mC]*eT*e[5mC]*eG) [compound 407611] | 82 |
| 407612 (antisense eA*eG*eA*eT*e[5mC]*dA*dG*d[5mC]*dT*dG*dG*dT*d[5mC]*dA*dT*e[5mC]*e[5mC]*eT*eT*eG) [compound 407612] | 82 |
| 407613 (antisense eT*eG*e[5mC]*eT*e[5mC]*dA*d[5mC]*dA*dG*d[5mC]*d[5mC]*dG*d[5mC]*d[5mC]*dG*eT*eT*e[5mC]*eT*e[5mC]) [compound 407613] | 66 |

| Substance | % Inhibition [%] |
| --- | --- |
| 407614 (antisense eT*eG*e[5mC]*eA*eG*dT*dA*d[5mC]*dT*dG*d[5mC]*dT*d[5mC]*dA*d[5mC]*eA*eG*e[5mC]*e[5mC]*eG) [compound 407614] | 78 |
| 407615 (antisense eG*eA*e[5mC]*eA*e[5mC]*d[5mC]*d[5mC]*d[5mC]*dG*dT*d[5mC]*dT*dG*d[5mC]*d[5mC]*eA*eG*e[5mC]*eA*eG) [compound 407615] | 65 |
| 407616 (antisense eT*eG*e[5mC]*eA*eG*dG*dA*d[5mC]*dA*d[5mC]*d[5mC]*d[5mC]*d[5mC]*dG*dT*e[5mC]*eT*eG*e[5mC]*e[5mC]) [compound 407616] | 64 |
| 407617 (antisense eT*e[5mC]*e[5mC]*eA*e[5mC]*dA*dT*dG*dG*dA*dT*dA*dT*dT*d[5mC]*eA*eA*e[5mC]*eT*eG) [compound 407617] | 67 |
| 407618 (antisense eG*eT*eA*eT*eT*dT*dT*dT*d[5mC]*d[5mC]*dA*d[5mC]*dA*dT*dG*eG*eA*eT*eA*eT) [compound 407618] | 42 |
| 407619 (antisense eA*eG*eA*eA*eT*dA*dG*dG*dT*dA*dT*dT*dT*dT*dT*e[5mC]*e[5mC]*eA*e[5mC]*eA) [compound 407619] | 64 |
| 407620 (antisense eA*eG*eG*eA*e[5mC]*d[5mC]*dT*dG*d[5mC]*d[5mC]*dA*dT*dG*dG*dA*e[5mC]*eA*e[5mC]*eT*e[5mC]) [compound 407620] | 79 |
| 407621 (antisense eA*e[5mC]*eA*eA*e[5mC]*dA*dG*dG*dA*d[5mC]*d[5mC]*dT*dG*d[5mC]*d[5mC]*eA*eT*eG*eG*eA) [compound 407621] | 62 |
| 407622 (antisense eT*e[5mC]*eA*e[5mC]*e[5mC]*dA*dA*d[5mC]*dA*dA*d[5mC]*dA*dG*dG*dA*e[5mC]*e[5mC]*eT*eG*e[5mC]) [compound 407622] | 55 |
| 407623 (antisense eT*e[5mC]*e[5mC]*eA*eT*dT*d[5mC]*dA*d[5mC]*d[5mC]*dA*dA*d[5mC]*dA*dA*e[5mC]*eA*eG*eG*eA) [compound 407623] | 69 |
| 407624 (antisense eG*eA*eG*eA*e[5mC]*d[5mC]*dA*d[5mC]*d[5mC]*d[5mC]*dA*dG*dA*dT*dG*eG*eT*eG*eT*eT) [compound 407624] | 73 |
| 407625 (antisense eT*eT*eG*eT*e[5mC]*dG*dA*dA*dA*d[5mC]*dA*dG*dT*dG*dG*eG*e[5mC]*e[5mC]*eG*e[5mC]) [compound 407625] | 100 |
| 407626 (antisense eT*e[5mC]*eT*eT*eG*dA*dT*dT*dT*dT*dG*dT*d[5mC]*dG*dA*eA*eA*e[5mC]*eA*eG) [compound 407626] | 82 |
| 407627 (antisense eG*e[5mC]*e[5mC]*e[5mC]*eA*dG*d[5mC]*dA*d[5mC]*d[5mC]*dG*d[5mC]*dG*dA*dT*e[5mC]*eA*eG*eG*eT) [compound 407627] | 79 |
| 407628 (antisense eT*eG*eA*eT*eG*dA*d[5mC]*d[5mC]*dT*dG*d[5mC]*dG*d[5mC]*d[5mC]*dA*e[5mC]*e[5mC]*e[5mC]*eG*e[5mC]) [compound 407628] | 38 |
| 407629 (antisense eT*e[5mC]*eA*eG*eT*dG*dA*dG*dG*dA*d[5mC]*d[5mC]*dA*d[5mC]*dG*eG*eG*e[5mC]*eT*eG) [compound 407629] | 34 |
| 407630 (antisense e[5mC]*eA*e[5mC]*eA*eT*dG*dG*dT*d[5mC]*dA*dG*dT*dG*dA*dG*eG*eA*e[5mC]*e[5mC]*eA) [compound 407630] | 29 |
| 407631 (antisense eG*eG*eG*e[5mC]*eA*d[5mC]*d[5mC]*dA*d[5mC]*dA*dT*dG*dG*dT*d[5mC]*eA*eG*eT*eG*eA) [compound 407631] | 66 |
| 407632 (antisense eT*e[5mC]*e[5mC]*eG*eT*dT*d[5mC]*dG*dG*dG*d[5mC]*dA*dG*dG*d[5mC]*eA*eG*eA*eG*eG) [compound 407632] | 46 |
| 407633 (antisense eG*e[5mC]*eA*eG*eG*d[5mC]*dA*dG*dT*d[5mC]*d[5mC]*dT*dG*dG*dG*eT*e[5mC]*eA*eT*e[5mC]) [compound 407633] | 71 |
